Experiments:
[1] = system: glutamine synthetase (GS); settings: cited from earlier work
R. meliloti = assay: Sensitivity of R. meliloti to PTC and PTT; format: cell-based, Rhizobium meliloti
Text: Plasmids pIB17.1 and pIB17.2 were therefore transferred by means of a 2 factor cross into the Rhizobium meliloti strain 2011.

plants [2] = settings: in vivo; cited from earlier work
plants [3] = assay: Herbicidal activity, uptake, transport and deacetylation in plants; format: in vivo; settings: for deacetylation activity in plants / uptake, transport and degradation in plants: in vivo; for herbicidal activity: plants without deacetylase gene
Text: In this way, the above-described 2-gene system can be reduced to a 1-gene system and thereby crucially simplified, as explained in more detail below: any plants can be transformed with a Streptomycetes-derived deacetylase gene under the control of a tissue-specific promoter. Following application of N-acetylphosphinothricin or N-acetylphosphinothricin-tripeptide, the tissue-specific expression leads to the immediate death of the corresponding tissue.

Nicotiana tabacum = assay: Treatment of Nicotiana tabacum plants carrying the deacetylase gene; format: in vivo; settings: transgenic Nicotiana tabacum, killed by liberated PTC or PTT
Experimental: The deacetylase gene which was modified in Example 1 was transferred into A. tumefaciens LBA4404 using a two-factor cross. Nicotiana tabacum leaf disks were incubated with the resulting strains LBA4404/17.1 and LBA4404/17.2 and, after 3 days, transferred to a kanamycin-containing shoot-inducing medium. Southern hybridization can be used to test regenerating kanamycin-resistant shoots for the presence of the deacetylase gene.

wild-type plant = assay: Injection of N-acetyl-PTC or N-acetyl-PTT into tobacco plants: stability, transport, effect on wild-type plant; format: in vivo
GS = settings: E. coli with endogenous deacetylase activity
Text: The deacetylase converts N-Ac-PTC into PTC, which then inhibits the GS in a known manner, as can be measured in a γ-glutamyltransferase assay (Bender et al., J. Bacteriol. 129, 1001-1009, 1977).

[4] = system: Gram-positive and Gram-negative bacteria; settings: cited from earlier work
Botrytis cinerea = settings: cited from earlier work

| Molecule | inhibitor of glutamine synthetase (GS) [1] | sensitivity of R. meliloti (R. meliloti) | herbicidal action (plants [2]) | deacetylation activity in plants (plants [3]) | uptake, transport and degradation in plants (plants [3]) | herbicidal activity (plants [3]) | effect on plants containing the deacetylase gene (Nicotiana tabacum) | stability and transport in the plant cell (wild-type plant; in vivo) | consequences for the wild-type plant (wild-type plant) | inhibition of GS activity after adding the substance (GS) | activity against Gram-positive and Gram-negative bacteria [4] | activity against the fungus Botrytis cinerea (Botrytis cinerea) |
| --- | --- | --- | --- | --- | --- | --- | --- | --- | --- | --- | --- | --- |
| 2-amino-4-methylphosphinobutyric acid [PTC] | inhibitor of glutamine synthetase | reacts very sensitively | acts as a total herbicide | – | – | – | – | – | – | – | – | – |
| CC(=O)NC(CCP(C)(=O)O)C(=O)O (stereo not drawn) [N-acetyl-PTC, N-acetylphosphinothricin] | – | – | – | No deacetylation activity | taken up by plants and transported and not degraded immediately | neither substance is herbicidally active | the plants are then killed | stable in the plant cell and transported into all cells | Neither of the two substances has recognizably negative consequences | efficient inhibition of GS activity | – | – |
| CC(=O)NC(CCP(C)(=O)O)C(=O)NC(C)C(=O)NC(C)C(=O)O (stereo not drawn) [N-acetyl-PTT, N-acetylphosphinothricin tripeptide] | – | – | – | No deacetylation activity | taken up by plants and transported and not degraded immediately | neither substance is herbicidally active | the plants are then killed | – | Neither of the two substances has recognizably negative consequences | – | – | – |
| C[C@H](NC(=O)[C@H](C)NC(=O)[C@@H](N)CCP(C)(=O)O)C(=O)O [PTT, phosphinothricylalanylalanine] | – | reacts very sensitively | – | – | – | – | – | – | – | – | active against Gram-positive and Gram-negative bacteria | also against the fungus Botrytis cinerea |
